# Laboratory results taken from patent publication US20100285959A1, “HERBICIDAL MIXTURES” (priority 2006, published 2010).
# What was measured:
# velvetleaf (ABUTH) [1] = assay: Test 18 greenhouse, post- and preemergence; conditions: 15 DAA
# velvetleaf (ABUTH) [2] = assay: Test 16 greenhouse, post- and preemergence; conditions: 15 DAA
# velvetleaf (ABUTH) [3] = assay: Test 17 greenhouse, post- and preemergence; assay type: in vivo, Abutilon theophrasti; conditions: 12 DAA
# Excerpt: Plants were watered as needed.
# flint corn (ZEAMI) = assay: Test 12 field trial, preemergence; assay type: in vivo, Zea mays L. ssp. indurata; conditions: Cpd 2 or Cpd 1 62 g a.i./ha, Diuron 2000 g a.i./ha
# Excerpt: (§1) In early-mid spring season, corn seeds (hybrid ‘Pioneer 3041’) were planted 5 cm deep and sugarcane nodes (variety RB-72.454) were planted 10 cm deep in separate plots in a clay soil having 2.6% organic matter and a pH of 5.6. Plots were 24 m long by 1.5 m wide with rows spaced 80 cm (corn) or 140 cm (sugarcane) apart. Corn seeds were spaced 15 cm apart and sugarcane nodes were spaced 10 cm apart within the rows. At the same time, weed seeds were broadcast over the surface of separate plots without a crop, one weed species per plot. The weed plots were rotary tilled to incorporate the weed seeds to a variety of depths. The field was managed using conventional tillage practices.
# common sugarcane (SACOF) = assay: Test 12 field trial, preemergence; assay type: in vivo, Saccharum officinarum; conditions: Cpd 2 or Cpd 1 62 g a.i./ha, Diuron 2000 g a.i./ha
# Excerpt: as §1
# slender amaranth (AMAVI) = assay: Test 12 field trial, preemergence; assay type: in vivo, Amaranthus viridis; conditions: Cpd 2 or Cpd 1 62 g a.i./ha, Diuron 2000 g a.i./ha
# Excerpt: as §1
# common blackjack (BIDPI) = assay: Test 12 field trial, preemergence; assay type: in vivo, Bidens pilosa; conditions: Cpd 2 or Cpd 1 62 g a.i./ha, Diuron 2000 g a.i./ha
# Excerpt: as §1
# [4] = system: broadleaf buttonweed (BOILF); assay: Test 12 field trial, preemergence; assay type: in vivo, Borreria latifolia; conditions: Cpd 2 or Cpd 1 62 g a.i./ha, Diuron 2000 g a.i./ha
# Excerpt: as §1
# sicklepod (CASOB) = assay: Test 12 field trial, preemergence; assay type: in vivo, Cassia obtusifolia; conditions: Cpd 2 or Cpd 1 62 g a.i./ha, Diuron 2000 g a.i./ha
# Excerpt: as §1
# [5] = system: tropical spiderwort (COMBE); assay: Test 12 field trial, preemergence; assay type: in vivo, Commelina benghalensis; conditions: Cpd 2 or Cpd 1 62 g a.i./ha, Diuron 2000 g a.i./ha
# Excerpt: as §1
# [6] = system: Florida beggarweed (DEDTO); assay: Test 12 field trial, preemergence; assay type: in vivo, Desmodium tortuosum; conditions: Cpd 2 or Cpd 1 62 g a.i./ha, Diuron 2000 g a.i./ha
# Excerpt: as §1
# wild poinsettia (EPHHL) = assay: Test 12 field trial, preemergence; assay type: in vivo, Euphorbia heterophylla; conditions: Cpd 2 or Cpd 1 62 g a.i./ha, Diuron 2000 g a.i./ha
# Excerpt: as §1
# [7] = system: Ipomoea grandiflora (IPOGF); assay: Test 12 field trial, preemergence; assay type: in vivo; conditions: Cpd 2 or Cpd 1 62 g a.i./ha, Diuron 2000 g a.i./ha
# Excerpt: as §1
# wild spikenard (HPYSU) = assay: Test 12 field trial, preemergence; assay type: in vivo; conditions: Cpd 2 or Cpd 1 62 g a.i./ha, Diuron 2000 g a.i./ha
# Excerpt: as §1
# common purslane (POROL) = assay: Test 12 field trial, preemergence; assay type: in vivo, Portulaca oleracea; conditions: Cpd 2 or Cpd 1 62 g a.i./ha, Diuron 2000 g a.i./ha
# Excerpt: as §1
# arrowleaf sida (SIDRH) = assay: Test 12 field trial, preemergence; assay type: in vivo, Sida rhombifolia; conditions: Cpd 2 or Cpd 1 62 g a.i./ha, Diuron 2000 g a.i./ha
# Excerpt: as §1
# [8] = system: Italian cocklebur (XANSI); assay: Test 12 field trial, preemergence; assay type: in vivo, Xanthium strumarium ssp. italicum; conditions: Cpd 2 or Cpd 1 62 g a.i./ha, Diuron 2000 g a.i./ha
# Excerpt: as §1
# winter wheat (TRZAW) = assay: Test 27 field trial, postemergence; assay type: in vivo, Triticum aestivum; conditions: in vivo
# Excerpt: (§2) Wheat seeds (cv. ‘Custer’) were planted in late fall season in a clay loam soil. Plots were 9 m long by 1.8 m wide. The field was managed using conventional tillage practices. […] All treatments also included a surfactant. […] Results are the means of the three replicates.
# kochia (KCHSC) = assay: Test 27 field trial, postemergence; assay type: in vivo, Kochia scoparia; parameters: scale not given here; conditions: tribenuron-methyl 10 g a.i./ha
# Excerpt: as §2
smiles,measurement,setting,value
C#CCOc1cc(-n2nc3n(c2=O)CCCC3)c(Cl)cc1Cl [Azafenidin],Postemergence ABUTH Obs,velvetleaf (ABUTH) [1]; alone at 7.5 g a.i./ha,46
same,Preemergence ABUTH Obs,velvetleaf (ABUTH) [1]; alone at 7.5 g a.i./ha,18
same,Postemergence ABUTH Obs,velvetleaf (ABUTH) [1]; alone at 15 g a.i./ha,73
same,Preemergence ABUTH Obs,velvetleaf (ABUTH) [1]; alone at 15 g a.i./ha,35
same,Postemergence ABUTH Obs,velvetleaf (ABUTH) [1]; alone at 30 g a.i./ha,81
same,Preemergence ABUTH Obs,velvetleaf (ABUTH) [1]; alone at 30 g a.i./ha,67
same,Postemergence ABUTH Obs,velvetleaf (ABUTH) [1]; alone at 45 g a.i./ha,86
same,Preemergence ABUTH Obs,velvetleaf (ABUTH) [1]; alone at 45 g a.i./ha,68
O=C(O)c1cc(Oc2ccc(C(F)(F)F)cc2Cl)ccc1[N+](=O)[O-] [Acifluorfen],"Obs response, scale 0 to 100","velvetleaf (ABUTH) [2]; Postemergence, 7.5 g a.i./ha",0
same,"Obs response, scale 0 to 100","velvetleaf (ABUTH) [2]; Postemergence, 15 g a.i./ha",0
same,"Obs response, scale 0 to 100","velvetleaf (ABUTH) [2]; Postemergence, 30 g a.i./ha",0
same,"Obs response, scale 0 to 100","velvetleaf (ABUTH) [2]; Preemergence, 7.5 g a.i./ha",0
same,"Obs response, scale 0 to 100","velvetleaf (ABUTH) [2]; Preemergence, 15 g a.i./ha",2
same,"Obs response, scale 0 to 100","velvetleaf (ABUTH) [2]; Preemergence, 30 g a.i./ha",2
Cc1nn(-c2cc(CC(Cl)C(=O)O)c(Cl)cc2F)c(=O)n1C(F)F (stereo not drawn) [Carfentrazone],"Obs response, scale 0 to 100","velvetleaf (ABUTH) [3]; Postemergence, 7.5 g a.i./ha",70
same,"Obs response, scale 0 to 100","velvetleaf (ABUTH) [3]; Postemergence, 15 g a.i./ha",79
same,"Obs response, scale 0 to 100","velvetleaf (ABUTH) [3]; Postemergence, 30 g a.i./ha",82
same,"Obs response, scale 0 to 100","velvetleaf (ABUTH) [3]; Preemergence, 7.5 g a.i./ha",4
same,"Obs response, scale 0 to 100","velvetleaf (ABUTH) [3]; Preemergence, 15 g a.i./ha",8
same,"Obs response, scale 0 to 100","velvetleaf (ABUTH) [3]; Preemergence, 30 g a.i./ha",8
CN(C)C(=O)Nc1ccc(Cl)c(Cl)c1 [Diuron],ZEAMI Obs,flint corn (ZEAMI); 15 DAA,20%
same,ZEAMI Obs,flint corn (ZEAMI); 29 DAA,20%
same,ZEAMI Obs,flint corn (ZEAMI); 48 DAA,20%
same,ZEAMI Obs,flint corn (ZEAMI); 61 DAA,25%
same,SACOF Obs,common sugarcane (SACOF); 15 DAA,0
same,SACOF Obs,common sugarcane (SACOF); 29 DAA,0
same,SACOF Obs,common sugarcane (SACOF); 48 DAA,0
same,SACOF Obs,common sugarcane (SACOF); 61 DAA,5
same,AMAVI Obs,slender amaranth (AMAVI); 15 DAA,100
same,AMAVI Obs,slender amaranth (AMAVI); 29 DAA,100
same,AMAVI Obs,slender amaranth (AMAVI); 48 DAA,100
same,AMAVI Obs,slender amaranth (AMAVI); 61 DAA,100
same,BIDPI Obs,common blackjack (BIDPI); 15 DAA,100
same,BIDPI Obs,common blackjack (BIDPI); 29 DAA,100
same,BIDPI Obs,common blackjack (BIDPI); 48 DAA,100
same,BIDPI Obs,common blackjack (BIDPI); 61 DAA,100
same,BOILF Obs,[4]; 15 DAA,99
same,BOILF Obs,[4]; 29 DAA,100
same,BOILF Obs,[4]; 48 DAA,100
same,BOILF Obs,[4]; 61 DAA,95
same,CASOB Obs,sicklepod (CASOB); 15 DAA,90
same,CASOB Obs,sicklepod (CASOB); 29 DAA,90
same,CASOB Obs,sicklepod (CASOB); 48 DAA,60
same,CASOB Obs,sicklepod (CASOB); 61 DAA,40
same,COMBE Obs,[5]; 15 DAA,99
same,COMBE Obs,[5]; 29 DAA,100
same,COMBE Obs,[5]; 48 DAA,100
same,COMBE Obs,[5]; 61 DAA,100
same,DEDTO Obs,[6]; 15 DAA,100
same,DEDTO Obs,[6]; 29 DAA,100
same,DEDTO Obs,[6]; 48 DAA,100
same,DEDTO Obs,[6]; 61 DAA,95
same,EPHHL Obs,wild poinsettia (EPHHL); 15 DAA,60
same,EPHHL Obs,wild poinsettia (EPHHL); 29 DAA,40
same,EPHHL Obs,wild poinsettia (EPHHL); 48 DAA,20
same,EPHHL Obs,wild poinsettia (EPHHL); 61 DAA,40
same,IPOGF Obs,[7]; 15 DAA,80
same,IPOGF Obs,[7]; 29 DAA,80
same,IPOGF Obs,[7]; 48 DAA,40
same,IPOGF Obs,[7]; 61 DAA,40
same,HPYSU Obs,wild spikenard (HPYSU); 15 DAA,75
same,HPYSU Obs,wild spikenard (HPYSU); 29 DAA,60
same,HPYSU Obs,wild spikenard (HPYSU); 48 DAA,40
same,HPYSU Obs,wild spikenard (HPYSU); 61 DAA,20
same,POROL Obs,common purslane (POROL); 15 DAA,100
same,POROL Obs,common purslane (POROL); 29 DAA,100
same,POROL Obs,common purslane (POROL); 48 DAA,100
same,POROL Obs,common purslane (POROL); 61 DAA,100
same,SIDRH Obs,arrowleaf sida (SIDRH); 15 DAA,100
same,SIDRH Obs,arrowleaf sida (SIDRH); 29 DAA,100
same,SIDRH Obs,arrowleaf sida (SIDRH); 48 DAA,100
same,SIDRH Obs,arrowleaf sida (SIDRH); 61 DAA,100
same,XANSI Obs,[8]; 15 DAA,60
same,XANSI Obs,[8]; 29 DAA,40
same,XANSI Obs,[8]; 48 DAA,40
same,XANSI Obs,[8]; 61 DAA,40
COC(=O)c1ccccc1S(=O)(=O)NC(=O)N(C)c1nc(C)nc(OC)n1 [Tribenuron-methyl],TRZAW Obs,"winter wheat (TRZAW); cv. Custer, Triticum aestivum (winter wheat), 16 days after application",0
same,TRZAW Obs,"winter wheat (TRZAW); cv. Custer, Triticum aestivum (winter wheat), 28 days after application",0
same,TRZAW Obs,winter wheat (TRZAW),0
same,KCHSC Obs,kochia (KCHSC); 16 DAA,22
same,KCHSC Obs,kochia (KCHSC); 28 DAA,23
same,KCHSC Obs,kochia (KCHSC); 49 DAA,22
Cc1nn(-c2cc(NS(C)(=O)=O)c(Cl)cc2Cl)c(=O)n1C(F)F [Sulfentrazone],Postemergence ABUTH Obs,velvetleaf (ABUTH) [1]; alone at 7.5 g a.i./ha,10
same,Preemergence ABUTH Obs,velvetleaf (ABUTH) [1]; alone at 7.5 g a.i./ha,0
same,Postemergence ABUTH Obs,velvetleaf (ABUTH) [1]; alone at 15 g a.i./ha,19
same,Preemergence ABUTH Obs,velvetleaf (ABUTH) [1]; alone at 15 g a.i./ha,3
same,Postemergence ABUTH Obs,velvetleaf (ABUTH) [1]; alone at 30 g a.i./ha,44
same,Preemergence ABUTH Obs,velvetleaf (ABUTH) [1]; alone at 30 g a.i./ha,28
C#CCN1C(=O)COc2cc(F)c(N3C(=O)C4=C(CCCC4)C3=O)cc21 [Flumioxazin],"Obs response, scale 0 to 100","velvetleaf (ABUTH) [2]; Postemergence, 7.5 g a.i./ha",36
same,"Obs response, scale 0 to 100","velvetleaf (ABUTH) [2]; Postemergence, 15 g a.i./ha",47
same,"Obs response, scale 0 to 100","velvetleaf (ABUTH) [2]; Postemergence, 30 g a.i./ha",52
same,"Obs response, scale 0 to 100","velvetleaf (ABUTH) [2]; Postemergence, 45 g a.i./ha",69
same,"Obs response, scale 0 to 100","velvetleaf (ABUTH) [2]; Preemergence, 7.5 g a.i./ha",58
same,"Obs response, scale 0 to 100","velvetleaf (ABUTH) [2]; Preemergence, 15 g a.i./ha",65
same,"Obs response, scale 0 to 100","velvetleaf (ABUTH) [2]; Preemergence, 30 g a.i./ha",93
same,"Obs response, scale 0 to 100","velvetleaf (ABUTH) [2]; Preemergence, 45 g a.i./ha",100
